Test results: patent US7566712B2, “Biaryl piperazinyl-pyridine analogues” (Neurogen Corporation, priority 2003, dated 2009)

Biological target: T1, human capsaicin receptor (Homo sapiens, UniProt Q8NER1)
T1 construct: pBK-CMV expression construct encoding the full length human capsaicin receptor; expressed in transfected cells
Assay: Calcium mobilization assay, determination of antagonist activity (Example 6)
Assay type: cell-based
Conditions: Table II; IC50 determined as described in Example 6
Method in brief: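 HEK293 clonal lines stably expressing full-length human capsaicin receptor, loaded with Fluo-3 AM in KRH buffer pH 7.4, 1–2 h at 37 °C. Compounds (1–5 μM final) preincubated 0.5–6 h at room temperature, then capsaicin at its EC50 added. FLIPR/Fluoroskan calcium signal; IC50 as 50% decrease of capsaicin response.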

T1 sequence (Q8NER1 whole entry): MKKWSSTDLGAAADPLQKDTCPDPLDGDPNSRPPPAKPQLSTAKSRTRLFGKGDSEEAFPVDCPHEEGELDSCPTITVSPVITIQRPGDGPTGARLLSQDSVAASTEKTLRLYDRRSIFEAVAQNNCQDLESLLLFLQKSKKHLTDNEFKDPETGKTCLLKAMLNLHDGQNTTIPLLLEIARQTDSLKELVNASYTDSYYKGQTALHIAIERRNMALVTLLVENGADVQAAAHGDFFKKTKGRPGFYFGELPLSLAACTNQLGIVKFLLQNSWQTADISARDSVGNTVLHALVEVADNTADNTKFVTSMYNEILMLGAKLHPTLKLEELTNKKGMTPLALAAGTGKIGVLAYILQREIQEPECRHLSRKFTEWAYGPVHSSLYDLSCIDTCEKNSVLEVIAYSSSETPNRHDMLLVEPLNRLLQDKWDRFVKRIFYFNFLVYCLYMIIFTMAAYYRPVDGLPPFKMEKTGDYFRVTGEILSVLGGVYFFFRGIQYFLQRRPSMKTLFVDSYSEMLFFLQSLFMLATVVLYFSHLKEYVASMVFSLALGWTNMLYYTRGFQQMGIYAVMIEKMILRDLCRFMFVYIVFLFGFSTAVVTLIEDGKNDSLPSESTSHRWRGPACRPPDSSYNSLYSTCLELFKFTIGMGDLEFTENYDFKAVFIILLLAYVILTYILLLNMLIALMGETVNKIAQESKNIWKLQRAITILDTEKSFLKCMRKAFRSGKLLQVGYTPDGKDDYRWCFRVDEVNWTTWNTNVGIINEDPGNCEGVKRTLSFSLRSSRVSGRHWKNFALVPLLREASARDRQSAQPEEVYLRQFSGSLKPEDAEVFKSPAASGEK

IC50, ≤ 1000 nM:
Cc1cccnc1N1CCN(c2cc(-c3ccc4ccccc4c3)nc(N3CCOCC3)n2)[C@H](C)C1 [Example 490, 4-[4-[(2R)-2-methyl-4-(3-methylpyridin-2-yl)piperazin-1-yl]-6-(2-naphthyl)pyrimidin-2-yl]morpholine]
C[C@@H]1CN(c2ncccc2Cl)CCN1c1cc(-c2cccc(F)c2)nc(N2CCOCC2)n1 [Example 488, 4-[4-[(2R)-4-(3-chloropyridin-2-yl)-2-methylpiperazin-1-yl]-6-(3-fluorophenyl)pyrimidin-2-yl]morpholine]
COC[C@@H]1CCCN1c1nc(-c2ccc(F)c(Cl)c2)cc(N2CCN(c3ncccc3C(F)(F)F)CC2)n1 [Example 550, 4-(3-chloro-4-fluorophenyl)-2-[(2S)-2-(methoxymethyl)pyrrolidin-1-yl]-6-{4-[3-(trifluoromethyl)pyridin-2-yl]piperazin-1-yl}pyrimidine]

Same assay, conditions: Table II; IC50 determined as described in Example 6 (antagonist activity, calcium mobilization)

IC50, ≤ 1000 nM:
Cc1ccc(-c2cc(N3CCN(c4nccnc4Cl)C[C@H]3C)nc(N3CCCC3)n2)cc1F [Example 978, 4-[(2R)-4-(3-chloropyrazin-2-yl)-2-methylpiperazin-1-yl]-6-(3-fluoro-4-methylphenyl)-2-pyrrolidin-1-ylpyrimidine]
C[C@@H]1CN(c2ncccc2F)CCN1c1cc(-c2ccc(F)c(Cl)c2)nc(N2CCOC[C@@H]2C)n1 [Example 1004, (3S)-4-{4-(3-chloro-4-fluorophenyl)-6-[(2R)-4-(3-fluoropyridin-2-yl)-2-methylpiperaztn-1-yl]pyrimidin-2-yl}-3-methylmorpholine]
C[C@H]1CN(c2ncccc2Cl)CCN1c1cc(-c2ccc(F)c(Cl)c2)nc(N2CCC[C@@H]2C)n1 [Example 985, 4-(3-chloro-4-fluorophenyl)-6-[(2S)-4-(3-chloropyridin-2-yl)-2-methylpiperazin-1-yl]-2-[(2S)-2-methylpyrrolidin-1-yl]pyrimidine]

Same assay, conditions: Table II; determined as described in Example 6 (antagonist activity); "*" = 1 micromolar or less

IC50, ≤ 1000 nM:
CCN(CC)C1CN(c2nc(-c3ccc(F)c(Cl)c3)cc(N3CCN(c4ncccc4C(F)(F)F)CC3)n2)C1 [Example 790, 1-(4-(3-chloro-4-fluorophenyl)-6-{4-[3-(trifluoromethyl)pyridin-2-yl]piperazin-1-yl}pyrimidin-2-yl)-N,N-diethylazetidin-3-amine]
Fc1ccc(-c2cc(N3CCN(c4ncccc4C(F)(F)F)CC3)nc(C3=CCNCC3)n2)cc1Cl [Example 864, 4-(3-chloro-4-fluorophenyl)-2-(1,2,3,6-tetrahydropyridin-4-yl)-6-{4-(3-(trifluoromethyl)pyridin-2-yl]piperazin-1-yl}pyrimidine]
CCCN1CCN(c2nc(-c3cncc(Cl)c3)cc(N3CCN(c4ncccc4Cl)C[C@H]3C)n2)CC1 [Example 838, 4-(5-chloropyridin-3-yl)-6-[(2R)-4-(3-chloropyridin-2-yl)-2-methylpiperazin-1-yl]-2-(4-propylpiperazin-1-yl)pyrimidine]
C[C@@H]1CN(c2ncccc2F)CCN1c1cc(-c2ccc(F)c(F)c2)nc(N2CCOCC2)n1 [Example 897, 4-{4-(3,4-difluorophenyl)-6-[(2R)-4-(3-fluoropyridin-2-yl)-2-methylpiperazin-1-yl]pyrimidin-2-yl}morpholine]
CC1CCCN1c1nc(-c2ccc(F)cc2)cc(N2CCN(c3ncccc3Cl)C[C@H]2C)n1 (stereo in doubt) [Example 842, 4-[4-(3-chloropyridin-2-yl)-2-methylpiperazin-1-yl]-6-(4-fluorophenyl)-2-(2-methylpyrrolidin-1-yl)pyrimidine]
O=C(O)C1CCCN(c2nc(-c3ccc(F)c(Cl)c3)cc(N3CCN(c4ncccc4C(F)(F)F)CC3)n2)C1 (stereo not drawn) [Example 800, 1-(4-(3-chloro-4-fluorophenyl)-6-{4-[3-(trifluoromethyl)pyridin-2-yl]piperazin-1-yl}pyrimidin-2-yl)piperidine-3-carboxylic acid]
CC1CCCN1c1nc(-c2ccc(F)c(Cl)c2)cc(N2CCN(c3nccnc3Cl)C[C@H]2C)n1 (stereo partly drawn) [Example 908]
C[C@@H]1CN(c2ncccc2Cl)CCN1c1cc(-c2cncc(Cl)c2)nc(N2CCCC2)n1 [Example 806, 4-(5-chloropyridin-3-yl)-6-[(2R)-4-(3-chloropyridin-2-yl)-2-methylpiperazin-1-yl]-2-pyrrolidin-1-ylpyrimidine]
C[C@@H]1CN(c2ccncc2Cl)CCN1c1cc(-c2ccc(F)c(F)c2)nc(N2CCCC2)n1 [Example 829, 4-[(2R)-4-(3-chloropyridin-4-yl)-2-methylpiperazin-1-yl]-6-(3,4-difluorophenyl)-2-pyrrolidin-1-ylpyrimidine]
C[C@H]1CN(c2nccnc2Cl)CCN1c1cc(-c2ccc(Cl)c(F)c2)nc(Cl)n1 [Example 956, 2-chloro-4-(4-chloro-3-fluorophenyl)-6-[(2S)-4-(3-chloropyrazin-2-yl)-2-methylpiperazin-1-yl]pyrimidine]
C[C@H]1CN(c2ncccc2Cl)CCN1c1cc(-c2ccc(Cl)c(F)c2)nc(N2CCOCC2)n1 [Example 959, 4-{4-(4-chloro-3-fluorophenyl)-6-[(2S)-4-(3-chtoropyridin-2-yl)-2-methylpiperazin-1-yl]pyrimidin-2-yl}morpholine]
CCOC(=O)CN(C)c1nc(-c2ccc(F)c(Cl)c2)cc(N2CCN(c3ncccc3C(F)(F)F)CC2)n1 [Example 812, ethyl N-(4-(3-chloro-4-fluorophenyl)-6-{4-[3-(trifluoromethyl)pyridin-2-yl]piperazin-1-yl}pyrimidin-2-yl)-N-methylglycinate]
Cc1cc(-c2cc(N3CCN(c4ncccc4C(F)(F)F)CC3)nc(N(C)C(C)CO)n2)ccc1F (stereo not drawn) [Example 795]
C[C@@H]1CN(c2nccnc2Cl)CCN1c1cc(-c2ccc(F)c(Cl)c2)nc(N2CCCC2)n1 [Example 909, 4-(3-chloro-4-fluorophenyl)-6-[(2R)-4-(3-chloropyrazin-2-yl)-2-methylpiperazin-1-yl]-2-pyrrolidin-1-ylpyrimidine]

Same assay, conditions: determined as described in Example 6 (calcium mobilization, antagonist activity); Table II

IC50, ≤ 1000 nM:
CN(C)C(=O)CN1CCN(c2nc(-c3ccc(F)c(Cl)c3)cc(N3CCN(c4ncccc4C(F)(F)F)CC3)n2)CC1 [Example 652, 2-[4-(4-(3-chloro-4-fluorophenyl)-6-{4-[3-(trifluoromethyl)pyridin-2 yl]piperazin-1-yl}pyrimidin-2-yl)piperazin-1-yl]-N,N-dimethylacetamide]
CC1CCCN1c1nc(-c2ccc(F)c(Cl)c2)cc(N2CCN(c3ncccc3F)CC2)n1 (stereo not drawn) [Example 707, 4-(3-chloro-4-fluorophenyl)-6-(4-(3-fluoropyridin-2-yl)piperazin-1-yl]-2-(2-methylpyrrolidin-1-yl)pyrimidine]
CCN1CCN(c2nc(-c3ccc(F)c(Cl)c3)cc(N3CCN(c4ncccc4C(F)(F)F)CC3)n2)CC1 [Example 623, 4-(3-chloro-4-fluorophenyl)-2-(4-ethylpiperazin-1-yl)-6-{4-[3-(trifluoromethyl)pyridin-2-yl]piperazin-1-yl}pyrimidine]
Cc1cc(-c2cc(N3CCN(c4ncccc4C(F)(F)F)CC3)nc(Cl)n2)ccc1F [Example 638, 2-chloro-4-(4-fluoro-3-methylphenyl)-6-{4-[3-(trifluoromethyl)pyridin-2-yl]piperazin-1-yl}pyrimidine]
C[C@@H]1CN(c2ncccc2Cl)CCN1c1cc(-c2ccc(F)c(Cl)c2)nc(N2CCOC(C)(C)C2)n1 [Example 742, 4-{4-(3-chloro-4-fluorophenyl)-6-[(2R)-4-(3-chloropyridin-2-yl)-2-methylpiperazin-1-yl]pyrimidin-2-yl}-2,2-dimethylmorpholine]
CC1CCCN1c1nc(-c2ccc(F)c(Cl)c2)cc(N2CCN(c3ncccc3C(F)(F)F)CC2)n1 (stereo not drawn) [Example 609, 4-(3-chloro-4-fluorophenyl)-2-(2-methylpyrrolidin-1-yl)-6-{4-[3-(trifluoromethyl)pyridin-2-yl]piperazin-1-yl}pyrimidine]
CCN(CC)c1nc(-c2ccc(F)c(Cl)c2)cc(N2CCN(c3ncccc3Cl)CC2)n1 [Example 724, 4-(3-chloro-4-fluorophenyl)-6-[4-(3-chloropyridin-2-yl)piperazin-1-yl]-N,N-diethylpyrimidin-2-amine]
CC1CN(c2nc(-c3ccc(F)c(Cl)c3)cc(N3CCN(c4ncccc4C(F)(F)F)CC3)n2)CCN1C (stereo not drawn) [Example 634, 4-(3-chloro-4-fluorophenyl)-2-(3,4-dimethylpiperazin-1-yl)-6-{4-[3-(trifluoromethyl)pyridin-2-yl]piperazin-1-yl}pyrimidine]
OC[C@H]1CCCN1c1nc(-c2ccc(F)c(Cl)c2)cc(N2CCN(c3ncccc3C(F)(F)F)CC2)n1 [Example 610, [(2R)-1-(4-(3-chloro-4-fluorophenyl)-6-{4-[3-(trifluoromethyl)pyridin-2-yl]piperazin-1-yl}pyrimidin-2-yl)pyrrolidin-2-yl]methanol]
CC1CCCCN1c1nc(-c2ccc(F)c(Cl)c2)cc(N2CCN(c3ncccc3C(F)(F)F)CC2)n1 (stereo not drawn) [Example 611, 4-(3-chloro-4-fluorophenyl)-2-(2-methylpiperidin-1-yl)-6-{4-[3-(trifluoromethyl)pyridin-2-yl]piperazin-1-yl}pyrimidine]
